16 molecules from patent US5559232A, “Carboxamides” (Hoffmann-La Roche Inc., priority 1993, dated 1996) can be followed below.

In general, Ki refers to a dissociation constant, usually derived from enzyme kinetics or from competition with a known ligand.

One assay addresses trypsin. Put plainly: inhibition of the amidolytic activity of trypsin (chromogenic substrate S-2251). The format is biochemical. Particulars: substrate S-2251, 200 and 750 μM, otherwise analogous to thrombin.
In another assay the target is human thrombin (Homo sapiens, UniProt P00734). Put plainly: inhibition of the amidolytic activity of thrombin (chromogenic substrate S-2238). The conditions noted are these: for Ki: human thrombin 0.5 nM, substrate S-2238, pH 7.8, room temperature; for q (ratio of the inhibition of trypsin to the inhibition of thrombin): specificity: Ki trypsin / Ki thrombin. The assay is classed as biochemical. On the procedure: A differential inhibition of thrombin and other serine proteases by the above compounds is desirable in order to obtain compounds having as high a specificity as possible and at the same time to avoid possible side-effects.
Specific chromogenic peptide substrates can be used to determine the inhibition of the catalytic activity of the above proteases. The inhibition of the amidolytic activity of thrombin and trypsin by the above guanidines was determined as described hereinafter.
The measurements were carried out on microtitre plates at room temperature. For this, in each well of the plate 150 μl of buffer (50 mM Tris, 100 mM NaCl, 0.1% polyethylene glycol; pH 7.8) were mixed with 50 μl of the inhibitor dissolved in DMSO and diluted in the buffer, and 25 μl of human thrombin (0.5 nM final conc.) were added. After incubation for 10 minutes the reaction was started by the addition of chromogenic substrate S-2238 (H-D-Phe-Pip-Arg-paranitroaniline from Kabivitrum; 10 or 50 μm final conc.) and the hydrolysis of the substrate was followed spectrophotometrically on a kinetic microtiter plate reader for 5 minutes. After graphical presentation of the inhibition curves the Ki values were determined according to the method described in Blochem. J. 55, 1955, 170-171.

`CCOC(=O)CN(C(=O)[C@H](CC(=O)NC[C@@H]1CCCN(C(=N)N)C1)NC(=O)NCc1ccccc1)C1CC1` [Example 9a, ethyl [[(S)-3-[(S)-1-(amino-imino-methyl)-piperidin-3-ylmethylcarbamoyl]-2-(3-benzyi-ureido)-propionyl]-cyclopropylamino]-acetate] yielded an inhibition constant Ki on trypsin of 95 µM. For the same molecule, on human thrombin, the Ki stood at 1.3 µM and the “q (ratio of the inhibition of trypsin to the inhibition of thrombin)” value is reported as 73.

For `CCOC(=O)CN(C(=O)[C@H](CC(=O)NC[C@@H]1CCCN(C(=N)N)C1)NC(=O)NCc1ccco1)C1CC1` [Example 9b1, Ethyl [[(S)-3-[(S)-1-(amino-imino-methyl)-piperidin-3-ylmethylcarbamoyl]-2-(3-furan-2-ylmethyl-ureido)-propionyl]-cyclopropyl-amino]-acetate], the inhibition constant (Ki) at trypsin turned out to be 80 µM; at human thrombin, 1.5 µM. The “q (ratio of the inhibition of trypsin to the inhibition of thrombin)” value on human thrombin was found to be 53.

`CCCCN(CCC(=O)OCC)C(=O)[C@H](CC(=O)NC[C@@H]1CCCN(C(=N)N)C1)NC(=O)NCc1ccco1` [Example 10, Ethyl 3-[[(S)-3-[(S)-1-(amino-imino-methyl)-piperidin-3-ylmethylcarbamoyl]-2-(3-furan-2-ylmethyl-ureido)-propionyl]-butylamino]-propionate]: the Ki at trypsin worked out at 51 µM; at human thrombin, 0.25 µM. Besides, the “q (ratio of the inhibition of trypsin to the inhibition of thrombin)” value at human thrombin turned out to be 204.

In turn, `N=C(N)N1CCC[C@@H](CNC(=O)C[C@H](NC(=O)NCc2ccccc2)C(=O)N(CC(=O)O)C2CC2)C1` [Example 11, [[(S)-3-[(S)-1-(amino-imino-methyl)-piperidin-3-ylmethylcarbamoyl]2-(3-benzyl-ureido)-propionyl]-cyclopropyl-amino]-acetic acid] displayed a Ki on trypsin of 35 µM. Also, on human thrombin, the inhibitory constant (Ki) was 0.043 µM and the “q (ratio of the inhibition of trypsin to the inhibition of thrombin)” value turned out to be 814.

As to `CCCCC(=O)N[C@@H](CC(=O)NC[C@@H]1CCCN(C(=N)N)C1)C(=O)N(CC(=O)OCC)C1CC1` [Example 13a, Ethyl [[(S)-3-[(S)-1-(amino-imino-methyl)-piperidin-3-ylmethylcarbamoyl]-2-pentanoylamino-propionyl]-cyclopropyl-amino]acetate], the Ki worked out at 70 µM at trypsin and 2.7 µM on human thrombin. In addition, the “q (ratio of the inhibition of trypsin to the inhibition of thrombin)” value on human thrombin came out at 26.

With `CCCCCC(=O)N[C@@H](CC(=O)NC[C@@H]1CCCN(C(=N)N)C1)C(=O)N(CC(=O)OCC)C1CC1` [Example 13b, ethyl [[(S)-3-[(S)-1-(amino-imino-methyl)-piperidin-3-ylmethylcarbamoyl]-2-hexanoylamino-propionyl]-cyclopropyl-amino]acetate], at trypsin, the affinity corresponds to a Ki of 75 µM. On human thrombin, the Ki was 0.41 µM and the “q (ratio of the inhibition of trypsin to the inhibition of thrombin)” value is given as 183.

Molecule `CCOC(=O)CN(C(=O)[C@H](CC(=O)NC[C@@H]1CCCN(C(=N)N)C1)NC(=O)c1ccccc1)C1CC1` [Example 13d, ethyl [[(S)-3-[(S)-1-(amino-imino-methyl)-piperidin-3-ylmethylcarbamoyl]-2-benzoylamino-propionyl]-cyclopropyl-amino]-acetate] had an inhibitory constant (Ki) at trypsin of 23.5 µM. On human thrombin, the affinity, expressed as Ki, was 4.7 µM and the “q (ratio of the inhibition of trypsin to the inhibition of thrombin)” value is on record as 5.

For the molecule `CCOC(=O)CN(C(=O)[C@H](CC(=O)NC[C@@H]1CCCN(C(=N)N)C1)NC(=O)Cc1ccccc1)C1CC1` [Example 13e], the Ki is 91 µM at trypsin and 2.6 µM on human thrombin. For the same molecule, the “q (ratio of the inhibition of trypsin to the inhibition of thrombin)” value on human thrombin came out at 35.

On trypsin, `CCCCC(=O)N[C@@H](CC(=O)NC[C@@H]1CCCN(C(=N)N)C1)C(=O)N(CC(=O)O)C1CC1` [Example 14a, [[(S)-3-[(S)-1-(Amino-imino-methyl)-piperidin-3-ylmethylcarbamoyl]-2-pentanoylamino-propionyl]-cyclopropyl-amino]acetic acid] yielded a Ki of 64 µM. Moreover, at human thrombin, the affinity corresponds to a Ki of 0.019 µM and the “q (ratio of the inhibition of trypsin to the inhibition of thrombin)” value amounted to 3368.

Molecule `CCCCCC(=O)N[C@@H](CC(=O)NC[C@@H]1CCCN(C(=N)N)C1)C(=O)N(CC(=O)O)C1CC1` [Example 14b, [[(S)-3-[(S)-1-(amino-imino-methyl)-piperidin-3-ylmethylcarbamoyl]-2-hexanoylamino-propionyl]-cyclopropyl-amino]-acetic acid] displayed a Ki at trypsin of 25 µM. On human thrombin, the affinity, expressed as Ki, was 0.036 µM and the “q (ratio of the inhibition of trypsin to the inhibition of thrombin)” value is reported as 694.

Consider `N=C(N)N1CCC[C@@H](CNC(=O)C[C@H](NC(=O)c2cc(Cl)ccn2)C(=O)N(CC(=O)O)C2CC2)C1` [Example 14c, [[(S)-3-[(S)-1-(amino-imino-methyl)-piperidin-3-ylmethylcarbarnoyl]-2-(4-chloro-pyridin-2-ylcarbonylamino)-propionyl]cyclopropyl-amino]-acetic acid], for which the figures for the Ki at trypsin and at human thrombin were 50 µM and 0.057 µM, respectively. Further, on human thrombin, the “q (ratio of the inhibition of trypsin to the inhibition of thrombin)” value is reported as 877.

With `N=C(N)N1CCC[C@@H](CNC(=O)C[C@H](NC(=O)c2ccccc2)C(=O)N(CC(=O)O)C2CC2)C1` [Example 14d, [[(S)-3-[(S)-1-(amino-imino-methyl)-piperidin-3-ylmethylcarbarnoyl]-2-benzoylamino-propionyl]-cyclopropyl-amino]-acetic acid], the Ki on trypsin came out at 83 µM. Further, at human thrombin, the Ki turned out to be 0.25 µM and the “q (ratio of the inhibition of trypsin to the inhibition of thrombin)” value is given as 332.

At trypsin, `N=C(N)N1CCC[C@@H](CNC(=O)C[C@H](NC(=O)Cc2ccccc2)C(=O)N(CC(=O)O)C2CC2)C1` [Example 14e, [[(S)-3-[(S)-1-(amino-imino-methyl)-piperidin-3-ylmethylcarbamoyl]-2-benzylcarbonylamino-propionyl]-cyclopropyl-amino]acetic acid] came in with a Ki of 69 µM. For the same molecule, at human thrombin, the affinity corresponds to a Ki of 0.081 µM and the “q (ratio of the inhibition of trypsin to the inhibition of thrombin)” value was determined as 852.

As for `N=C(N)N1CCC[C@@H](CNC(=O)C[C@H]2C(=O)N(C3CC3)CC(=O)N2S(=O)(=O)c2ccc3ccccc3c2)C1` [Example 15, N-[(S)-1-(amino-imino-methyl)-piperidin-3-ylmethyl]-2-[(S)-4-cyclopropyl-1-naphthalen-2-ylsulphonyl-3,6-dioxo-piperazin-2-yl]-acetamide], the affinity at trypsin, expressed as Ki, was 13 µM. Besides, on human thrombin, the affinity, expressed as Ki, was 0.0018 µM and the “q (ratio of the inhibition of trypsin to the inhibition of thrombin)” value is given as 7222.

On to `N=C(N)N1CCC[C@@H](CNC(=O)C[C@H]2C(=O)N(C3CCCC3)CC(=O)N2S(=O)(=O)c2ccc3ccccc3c2)C1` [Example 16, N-[(S)-1-(amino-imino-methyl)-piperidin-3-ylmethyl]-2[(S)-4-cyclopentyl-1-naphthalen-2-ylsulphonyl-3,6-dioxopiperazin-2-yl]-acetamide], for which the Ki on trypsin came to 14 µM. Moreover, on human thrombin, affinity was put at a Ki of 0.11 µM and the “q (ratio of the inhibition of trypsin to the inhibition of thrombin)” value was 127.

`CCCCS(=O)(=O)N1CCN(CC(=O)O)C(=O)C1CC(=O)NC[C@@H]1CCCN(C(=N)N)C1` (stereo partly drawn) [Example 17, [3-[(S)-1-(amino-imino-methyl)-piperidin-3-ylmethylcarbamoylmethyl]-4-butylsulphonyl-2-oxo-piperazin-1yl]acetic acid]: affinity on trypsin was put at a Ki of 96 µM. Moreover, on human thrombin, affinity was put at a Ki of 1.3 µM and the “q (ratio of the inhibition of trypsin to the inhibition of thrombin)” value amounted to 74.
